# Tests used:
# [1] = system: nRBC interactions with adherent leukocytes; assay: nRBC-leukocyte interactions, brightfield intravital microscopy of TNF-α-inflamed cremasteric venules; type: in vivo, mouse (C57BL/6); details: inhibitor given 120 min after TNF-α: PP2 150 μg/kg, SB203580 100 μg, piceatannol 1 mg; compared to vehicle control (DMSO); FIG. 2f
# Method: Brightfield intravital microscopy. Brightfield intravital microscopy was performed as previously reported^21,22. For SCD mice, several postcapillary and collecting venules were recorded from 15 min after the surgical preparation (time=0 is surgical section of the cremaster) for 75 minutes (pre-TNF-α), with each venule recorded continuously for at least 2 min. SCD mice were then injected i.p. with 0.5 μg recombinant murine TNF-α (R & D Systems) and then the same venules were videotaped over a period of 90 min (91-180 min), after which venules were recorded again for another 90 min (181-270 min). The role of endothelial selectins was evaluated in identical experiments performed in Selp^−/− or Sele^−/− mice transplanted with BM cells from SCD donor mice, or using antibodies against P- or E-selectin (1 mg/kg) prior to surgery. […] In experiments with non-SCD C57BL/6 mice, TNF-α was administered intrascrotally and images recorded 160-210 min after cytokine injection. […]
# Hemodynamic measurements and image analyses for brightfield intravital microscopy. The venular diameter was measured using a video caliper. Centerline RBC velocity was measured for each venule in real time using an optical Doppler velocimeter (Texas A&M, College Station, Tex.). […] Blood flow rate was calculated from the formula: Vmean×π×d^2/4. […]
# Balb/c mice [2] = assay: Antibody-induced acute lung injury (TRALI model), protein content in BAL fluids; type: in vivo, mouse (Balb/c); details: antibodies 1 mg/kg i.v. or n-acetyl cysteine 150 mg/kg i.v. 5 min before anti-H2d 3.5 mg/kg; BAL 2 h later
# Method: Antibody-induced acute lung injury. Balb/c male mice (8-12 week-old) were injected i.v. with 3.5 mg/kg of anti-H2d (clone 34-1-2s) or control H2b (clone 28-8-6s) antibodies. After 2 h, BAL was performed on anesthetized mice by 3 washes with 1 ml PBS each using a 18G needle, and the protein content assessed by the bicinchoninic acid method (BCA; Pierce, Rockford, Ill.). In some experiments, mice were pre-treated as follows: rabbit anti-platelet serum (25 μl; i.p. injection; Accurate Chemicals; Westbury, N.Y.) diluted in 200 μl of PBS, 2 h prior anti-H2d treatment; 1 mg/kg i.v. injection of control or anti-P-selectin, E-selectin or anti-αMβ2 antibodies 5 min before anti-H2d; 150 mg/kg i.v. injection of n-acetyl cysteine 5 min before anti-H2d . Platelet and leukocyte counts from blood samples obtained at the end of the experiment were determined using a hematological Coulter® AC-T diff™ l Analyzer (Beckman Coulter, Miami, Fla.). None of these treatments affected circulating leukocyte counts (not shown). In the TRALI experiments involving intravital imaging of the cremasteric microcirculation, TNF-α was injected intrascrotally to allow the recruitment and imaging of inflammatory leukocytes.
# Balb/c mice [3] = assay: Vascular permeability, FITC-dextran extravasation in cremasteric venules after anti-H2d; type: in vivo, mouse (Balb/c); details: TNF-α-treated mice, pre-treatment with antibodies 1 mg/kg or n-acetyl cysteine 150 mg/kg, imaged 30 min later
# Method: Vascular permeability. To analyze anti-MHC-I-induced vascular damage, Balb/c mice were intravenously infused with 3.5 mg/kg of anti-MHC-I antibodies (to H2d or control H2b) and 1 mg of FITC-Dextran (70 Kd; Sigma-Aldrich) 210 min after TNF-α-treatment.
# In some experiments, mice were pre-treated with 25 μL rabbit anti-platelet serum to deplete platelets, 1 mg/kg of control, anti-E-selectin or anti-αMβ2 antibodies, or 150 mg/kg of n-acetyl cysteine. Random fields containing small venules were imaged 30 min later using the FITC channel under a LumPlanFl 10× objective, NA 0.30 w. Images were masked over a threshold to quantify all FITC-Dextran-associated fluorescence intensity as well as the signal corresponding only to intravascular spaces. The percentage of extravasated FITC-Dextran was finally obtained using the formula: [(Total intensity−Intravascular intensity)/Total intensity]×100.
# [4] = system: ROS-producing adherent leukocytes; assay: In vivo detection of ROS-producing adherent leukocytes (dihydroxyrhodamine-123, MFIM); set-up: species or system mouse (Balb/c); details: TNF-α-treated mice; pre-treatment with anti-E-selectin 1 mg/kg or n-acetyl cysteine 150 mg/kg
# Method: In vivo detection of leukocytes producing reactive oxygen species (ROS). Balb/c mice prepared for MFIM were injected i.v. with 29 nmoles of dihydroxyrhodamine-123 (DHR; Molecular Probes, Eugene, Oreg.). DHR uptaken by leukocytes actively producing ROS converts into fluorescent rhodamine-123 (507/529 nm) which can be detected by a bright punctuated pattern in the FITC channel (FIG. 11). In some experiments, mice were pre-treated with 25 μL rabbit anti-platelet serum to deplete platelets, 1 mg/kg of anti-E-selectin antibody, or 150 mg/kg of n-acetyl cysteine. Images were captured in the brightfield and FITC channels before and after injection of 3.5 mg/kg anti-H2d antibody, and the frequency of ROS-producing cells calculated out of all adherent leukocytes in each venular segment.
SMILES,nRBC (normal red blood cell) interactions with leukocytes [1],lung injury induced by anti-H2d (protein content in BAL fluids) (Balb/c mice [2]),vascular permeability (FITC-dextran extravasation) after anti-H2d (Balb/c mice [3]),vascular permeability (FITC-dextran extravasation) after anti-H2d (Balb/c mice [3]; listed as N-acetyl-cysteine),ROS-producing adherent leukocytes after anti-H2d [4]
"CC(C)(C)n1nc(-c2ccc(Cl)cc2)c2c(N)ncnc21 [PP2, 4-amino-5-(4-chlorophenyl)-7-(t-butyl)pyrazolo[3,4-d]pyramidine]",Inhibition of nRBC (normal red blood cell) interactions,–,–,–,–
CC(=O)N[C@@H](CS)C(=O)O [n-acetyl-cysteine],–,completely prevented lung injury,completely prevented,prevents,prevents ROS generation

# Source: US20120039888A1, “Methods Of Inhibiting Inflammation-Associated Tissue Damage By Inhibiting Neutrophil Activity” (priority 2008, published 2012)
